Results as given in patent US20240398738A1, “MANIPULATION OF THE RETINOIC ACID SIGNALING PATHWAY” (THE REGENTS OF THE UNIVERSITY OF CALIFORNIA, priority 2017, published 2024).
“Also recorded” adds a separate entry of the source.

Legend:
[1] = tested on: retinal neurons (photoreceptors); test: TUNEL assay after intravitreal injection; format: in vivo, mouse; conditions: WT, 5-6 days after intravitreal injection, ATRA 100 nM
From the text: Immunolabeling and TUNEL assay. S334ter rat retinas infected with the RARE double reporter were dissected, fixed and frozen, as previously described (54). The tissue was cut in 14 μm thick cross-sections using a Leica cryostat. Immunocytochemical solution (ICC) was composed of standard 1×PBS (Gibco), 2.5% BSA (Sigma) and 0.1% Triton (Sigma). The tissue was blocked using ICC solution supplemented with unconjugated rabbit anti-mouse secondary antibody (Life Technologies) at RT for 1 hr. Slides were incubated with primary mouse anti-GFP antibody (#JL8, Clontech), with no RFP cross-reactivity, at 4° C. ON. An Alexa Fluor-488 conjugated goat anti-mouse secondary antibody (Life Technologies) was used at RT for 1 hr in the dark. The same procedure was carried out for detection of RARβ in mouse retinas following injection of vehicle or ATRA. Slides were incubated with a primary rabbit anti-RARβ antibody (ab53161, Abcam) and detected using an Alexa Fluor-488 conjugated goat anti-rabbit secondary antibody (Life Technologies). TUNEL assay (In Situ Cell Death Detection Kit, Roche) was carried out per manufacturer's instructions. Retinas were collected 5-6 days following injection with vehicle, ATRA, or ATRA and Liarozole.
TUNEL assay. TUNEL assay (In Situ Cell Death Detection Kit, Roche) was carried out per manufacturer's instructions. […]

RGCs in WT retina = test: YO-PRO-1 loading assay (dye permeability of RGCs) in WT retina after intravitreal injection; format: in vivo, mouse
Method: Intravitreal Injections. Before injection, mice were anesthetized with isoflurane (2%) and their pupils were dilated with tropicamide (1%) and phenylephrine (2.5%). Proparacaine (0.5%) was used as a topical analgesic. Genteal was applied under a glass coverslip to keep the cornea lubricated. An incision was made through the sclera below the ora serrata with a 30G needle and ˜1 μl of solution was injected into the vitreous with a blunt-ended 33G Hamilton syringe. After injection, the antibiotic tobramycin (0.3%) was applied to the eye. Final drug concentrations after intravitreal injection were: all-trans retinoic acid (ATRA, 100 nM), liarozole (100 μM), diethylaminobenzaldehyde (DEAB, 20 μM), citral (50 μM), BMS-493 (500 nM), and retinaldehyde (1 μM). The above values correspond to the final concentration in the eye after injecting 1 μl of drug accounting for a 5-fold dilution. An injection of PBS including 1% DMSO was used as vehicle control.
Yo-PRO-1 Loading Assay. After dissection, retinas were cut into thirds and mounted on a windowed nitrocellulose filter paper. Retinas were treated with 200 nM Yo-PRO-1 (Life Technologies) in oxygenated ACSF for 15 minutes, followed by treatment and then treated with nuclear ID (Enzo Life Sciences) at a 1:500 dilution for 3 minutes. ACSF was perfused continuously at 3 ml/min for a period of 5 minutes to wash away excess dye. In experiments employing TNP-ATP (200 μm), the retinas was pretreated with the compound for ten minutes before beginning YO-PRO-1 treatment.
Image analysis. All image analysis was performed using ImageJ or Fiji software (55,56). Yo-PRO-1 loading assay, ROIs were manually selected using the nuclear-ID channel based upon morphological characteristics. This was performed after computationally flattening the retina by performing a maximum Z projection onto a single plane. Following this, a background subtraction was performed with a rolling radius of 50 pixels. Cells identified as vascular endothelial cells or pericytes were not included in the analysis. This was confirmed using transillumination. A threshold for YO-PRO-1 loading was established by measuring the level of autofluorescence of untreated retinas in each channel and finding a baseline value with +2SD being the threshold for a YO-PRO-1 positive cell. Nuclear-ID was used to count the total number of cells within a field of view. The percentage of cells above the threshold was then calculated for comparison. For analysis of RARE double reporter virus assay, ROIs were manually selected on the RFP channel first and then superimposed to the GFP channel. Single cell values for both RFP and GFP were filtered by using a RFP minimum threshold established in naive unlabeled retinas.
Injections. Intravitreal injections: Adult mice and rats were intravitreally injected with drugs or viruses. Before injection, animals were anesthetized with isoflurane (2%) and their pupils were dilated with tropicamide (1%) and phenylephrine (2.5%). Proparacaine (0.5%) was used as a topical analgesic. Genteal was applied under a glass coverslip to keep the cornea lubricated. An incision was made through the sclera below the ora serrata with a 30G needle. Solutions were injected into the vitreous with a blunt-ended 33G Hamilton syringe. After injection, the antibiotic tobramycin (0.3%) was applied to the eye. Final drug concentrations (after 5-fold dilution in the vitreous) were: 100 nM all-trans retinoic acid (ATRA), 100 μM liarozole (24), 20 μM diethylaminobenzaldehyde (DEAB) (28,93), 50 μM citral, 500 nM BMS 493 (85), 1 μM retinaldehyde, and vehicle comprising of 1× phosphate buffered saline (PBS) containing 1% dimethyl sulfoxide (DMSO). Intravitreal injections were performed using AAV2 serotype only. WT and rd1 mice were injected with the RAR-reporter virus or the RARDN virus, at age 1-1.5 month-old. WT and s334ter rats were injected with the RAR-reporter virus at age 3-4 month-old. Final volume of injections was 1-1.5 μL for mice and 5 μL for rats. […]

Row | Compound | cell death / toxicity (TUNEL) [1] | increase of YO-PRO-1 labeling (RGCs in WT retina; WT mice, 3-7 days after intravitreal injection, versus vehicle) | percentage of YO-PRO-1 positive cells (RGCs in WT retina; WT mice, intravitreal injection 3-7 days before, ATRA 100 nM, liarozole 100 μM, retinaldehyde 1 μM, DEAB 20 μM, mean±SEM) | reversibility of ATRA-induced YO-PRO-1 loading (RGCs in WT retina; WT retina, intravitreal ATRA 100 nM) | Yo-Pro-1 labeling of WT-RGCs, result in words (RGCs in WT retina; WT retina, substance injected intravitreally alone) | percentage of YO-PRO-1 positive cells, ATRA-induced labeling with blocker (RGCs in WT retina; WT mice injected with ATRA, TNP-ATP bath-applied ex vivo or BMS-493 co-injected, mean±SEM)
1 | CC1=C(/C=C/C(C)=C/C=C/C(C)=C/C(=O)O)C(C)(C)CCC1 [ATRA, all-trans retinoic acid] | does not cause retinal neuron degeneration; also recorded: non-toxic; also recorded: no cell death | 2 fold | 15.80±3.10% | reversible; also recorded: disappeared 6 weeks after injection | significantly increased the fraction of cells incorporating Yo-Pro-1 | 
2 | CC1(C)CC=C(C#Cc2ccccc2)c2cc(/C=C/c3ccc(C(=O)O)cc3)ccc21 [BMS-493] |  |  |  |  |  | 5.74±1.54%
